This is an account of results in US8383626B2, “Nitric oxide donors for inducing neurogenesis” (Henry Ford Health System, priority 1999, dated 2013).

What all share (type): in vivo, rat
The test system of one assay is ischemic rats (stroke). Kind of assay: Battery of neurological functional tests (NSS, Rotarod, footfault, adhesive removal, body weight) after stroke. The note with it: Group 3: iv at one day and two days after stroke; middle aged rats; vs control. How it is done:
Administration of nitric oxide donor compound (DETA/NO) to normal and ischemic rats promotes neurogenesis in non-ischemic and ischemic brains. Since then, additional experiments have been performed to test the hypothesis that neurogenesis induced by DETA/NO promotes functional improvement after stroke; the data is provided herewith. Animals were administered (iv/ip) DETA/NO at one day (Group 1) or seven days (Group 2) after induction of stroke and followed by daily injection (ip) of DETA/NO over a period of seven days. Another NO donor compound (SNAP) was administered (iv) to ischemic rats at one day and two days after stroke (Group 3). Young (3 month old) rats were used in Groups 1 and 2. Middle aged rats (10 to 12 months old) were used in Group 3. A battery of neurological functional tests were measured from two days to forty-two days after stroke. These tests included 1) Neurological severity score (NSS) which measures motor, sensory and reflex functions and is similar to the contralateral neglect testing described in humans. The higher the score, the more severe the injury; 2) Rotarod test measures fore and hindlimb motor coordination and balance. Data are presented as percentage of baseline values; 3) Footfault test measures fore and hindlimb motor coordination. The higher the number, the more severe the injury; 4) Adhesive removal test measures sensorimotor impairments. Data are presented as time (seconds). The longer the time period, the more severe the injury; 5) Animal body weight.

The test system of assay [1] is progenitor cells in the dentate gyrus and subventricular zone (SVZ). Kind of assay: Cell proliferation (BrdU immunoreactive cells) in ischemic rats treated with VIAGRA. The note with it: 28 days after ischemia, vs saline. How it is done: (§1) The MCA was occluded by placement of an embolus at the origin of the MCA.
(§2) For BrdU immunostaining, DNA was first denatured by incubating brain sections (6 μm) in 50% formamide 2×SSC at 65° C. for 2 hours and then in 2 N HCL at 37° C. for 30 minutes. Sections were then rinsed with Tris buffer and treated with 1% of H2O2 to block endogenous peroxidase. Sections were incubated with a primary antibody to BrdU (1:100) at room temperature for 1 hour and then incubated with biotinylated secondary antibody (1:200, Vector, Burlingame, Calif.) for 1 hour. Reaction products were detected using 3′3′-diaminobenzidine-tetrahydrochloride (DAB, Sigma). For TuJ1 immunostaining, coronal sections were incubated with the antibody against TuJ1 (1:1000) at 4° C. overnight and then incubated with a biotinylated horse anti-mouse immunoglobulin antibody at room temperature for 30 minutes. Reaction products were detected with DAB.
BrdU immunostained sections were digitized using a 40× objective (Olympus BX40) via the MCID computer imaging analysis system (Imaging Research, St. Catharines, Canada). BrdU immunoreactive nuclei were counted on a computer monitor to improve visualization and in one focal plane to avoid over-sampling. Structures were sampled by analyzing entire structures on each section (SVZ and dentate gyrus). All BrdU immunoreactive-positive nuclei in these areas are presented as the number of the BrdU immunoreactive cells/mm^2 and data shown are mean±SE. Density for the selected several sections was averaged to obtain a mean density value for each animal. For measurements of TuJ1 immunoreactivity, a threshold was applied to each digitized image (628×480 μm^2) for ensuring that the numbers of TuJ1 immunostained pixels were representative of the original TuJ1 immunoreactive patterns. All objects with fewer than 5 pixels were eliminated from measurements. Data are presented as a percentage of area, in which the number of TuJ1 immunostained pixels was divided by the total number of pixels in the area (628×480 μm^2). […]

The subject of assay [2] is TuJ1 immunoreactive cells. Kind of assay: TuJ1 immunoreactivity 28 days after ischemia. The note with it: 2 or 5 mg/kg; vs contralateral hemisphere and saline treated ischemic rats. How it is done:
as §2, with “3'3'-diaminobenzidine-tetrahydrochloride” for “3′3′-diaminobenzidine-tetrahydrochloride”, “DAB. BrdU immunostained sections were digitized using a 40× objective (Olympus BX40) via the MCID computer imaging analysis system (Imaging Research, St. Catharines, Canada). BrdU immunoreactive nuclei were counted on a computer monitor to improve visualization and in one focal plane to avoid over-sampling. Structures were sampled by analyzing entire structures on each section (SVZ and dentate gyrus). […] To examine the effects of […] on neurons, TuJ1 immunoreactivity was measured 28 days after ischemia.” for “DAB.”

In assay [3] the test system is ischemic rats (MCA occlusion). Briefly: Behavior tests (foot-fault, adhesive removal) and body weight after MCA occlusion. How it is done:
as §1
(§3) The ischemic rats (n=9) were treated with the same volume of saline as a control group. Rats received intraperitoneal injection of BrdU (50 mg/kg) 24 hours after ischemia and daily intraperitoneal injection of BrdU for 14 consecutive days. All rats were sacrificed 28 days after ischemia.

Assay [4] concerns focal cerebral ischemia (MCA occlusion). Kind of assay: Infarct volume 28 days after ischemia. How it is done: as §1, §3

The structures appear in SMILES notation.

For the compound `CC(=O)N[C@H](C(=O)O)C(C)(C)SN=O` (racemic) [SNAP, S-nitroso-N-acetylpenicillamine], in the assay on ischemic rats (stroke), the “motor and sensorimotor functions (Rotarod, footfault, Adhesive removal tests)” value is given as “significant improvements”.
Consider `CCCc1nn(C)c2c(=O)[nH]c(-c3cc(S(=O)(=O)N4CCN(C)CC4)ccc3OCC)nc12` [VIAGRA™, sildenafil], for which, in assay [1] (2 mg/kg), the “numbers of BrdU immunoreactive cells in the ipsilateral SVZ” value is listed as “significantly (p<0.05) increased”. The “numbers of BrdU immunoreactive cells in the SVZ of both hemispheres” value in assay [1] (5 mg/kg) was “significantly (p<0.05) increased”. Moreover, in assay [1] (oral 2 or 5 mg/kg initiated at 2 or 24 hours after stroke), the “numbers of BrdU immunoreactive cells in the dentate gyrus of both hemispheres” value was “significant (p<0.05) increases”. Also, the “TuJ1 immunoreactive cells in the ipsilateral SVZ and striatum” value in assay [2] is recorded as “significantly (p<0.05) increased”. The “animal body weight loss” value in assay [3] (2 mg/kg or 5 mg/kg initiated at 2 hours) is “significantly reduced”. Besides, the “performance on the foot-fault test and the adhesive removal test” value in assay [3] (2 mg/kg or 5 mg/kg initiated at 2 hours of onset of ischemia, during 2 to 21 days, vs saline) is on record as “significantly improved performance”. In addition, the “foot-fault and adhesive removal tests” value in assay [3] (2 mg/kg starting at 24 hours after onset of ischemia, during 7 to 28 days) is listed as “significant (p<0.05) improvements”. Further, in assay [3] (2 mg/kg starting at 24 hours, at 4, 7 14, 21 and 28 days after ischemia), the body weight loss entry is listed as “significant (p<0.05) reduction”. Besides, in assay [4] (2 mg/kg starting at 24 hours, vs control group), the “infarct volume 28 days after ischemia” value was “no significant differences”. Besides, the “infarct volumes measured 28 days after ischemia” value in assay [4] (2 or 5 mg/kg initiated at 2 hours, vs saline) is “not significantly different”. Besides, the “% of infarct volume at 28 days (Mean ± SE)” value in assay [4] (group 1: 2 h after MCAo, 2 mg/kg oral × 7days) amounted to 35.15 ± 3.25%; in assay [4] (group 2: 2 h after MCAo, 5 mg/kg oral × 7days), 37.67 ± 4.33%; in assay [4] (group 3: 24 h after MCAo, 2 mg/kg oral × 7days) it was 35.52 ± 0.93%.
